Experimental data from patent publication US20250270170A1, “2,3-DIMETHOXY-5-METHYL-1,4-BENZOQUINONE ALKYL ALCOHOL DERIVATIVE AND USE THEREOF” (BEIJING ANJIANXI BIO-MEDICAL TECHNOLOGY CO., LTD., priority 2021, published 2025).

What was measured:
[1] = Example 10: body weight of HT-29 tumor-bearing nude mice; assay type: in vivo; details: HT-29 model, DDP 5 mg/kg i.p. QW × 3, R01 18 mg/kg i.g. BID × 28
Experimental: On D1 of the assay, the HT-29 cells in the logarithmic growth phase were collected, counted and resuspended in serum-free McCoy, and the cell concentration was adjusted to 4×10^7 cells/mL. The cells were pipetted with a pipette to disperse them evenly, and the cells were put into a 50-mL centrifuge tube, which was placed in an ice box. A 1-mL syringe was used to draw the cell suspension, which was injected subcutaneously into the axilla of the front right limb of a nude mouse. Each animal was inoculated with 100 μL (4×10^6 cells/mouse) to establish a HT-29 transplanted tumor model in nude mice. After the inoculation, the animal status and tumor growth were regularly observed. On D12, the tumor diameter was measured using an electronic vernier caliper. The data were input into an Excel spreadsheet to calculate the tumor volume. Tumor-bearing mice in good health and with similar tumor volumes (103 to 179 mm^3) were selected and divided into groups using randomized block method. After the start of the assay, the tumor diameter was measured regularly, the tumor volume was calculated, and the animal body weight was also weighed and recorded.

NCI-H460 cells = experiment: Colony formation assay, NCI-H460; assay type: cell-based, human; details: 50 μM and 150 μM vs 0 μM, about 2 weeks
Experimental: (1) The cell status was observed under a microscope. Cells in the logarithmic growth phase were selected and digested to make a cell suspension. 20 μl of the cell suspension was taken with a pipette and added to the CountStar disposable cell counting plate for cell counting, and the counting results were recorded.
(2) A 6-well culture plate was used for colony formation assay. Approximately 1,000 cells were inoculated into each well, and the complete culture medium was added to make up the volume to 2.5 ml per well. The cells were shaked in a figure-8 pattern to disperse the cells evenly. The next day, the compound of formula (I) at different concentrations (0 μM, 50 μM, and 150 μM) were added to the corresponding wells according to the assay plan, and incubated in an incubator at 37° C. with 5% CO2 for about 2 weeks. The culture was terminated when visible colonies appeared.
(3) The culture plate was taken out, and the old culture medium was discarded. The cells were gently washed twice with PBS.
(4) 500 μl of 4% paraformaldehyde fixative was added to each well to fix the cells at room temperature for 15 minutes, and then the fixative was discarded.
(5) 500 μl of 0.1% crystal violet solution was added to each well, and cells were stained at room temperature for at least 15 minutes. The crystal violet was discarded, and the staining solution was slowly washed away with running water. […]

A549 cells = experiment: Flow cytometry for cell cycle detection, A549; assay type: cell-based, human
Experimental: (1) Cells were inoculated in a 6-well plate. When about 50% of the cells were adherent and fused, the compound of formula (I) at a concentration of 0 μM, 10 μM, 30 μM, and 90 μM were added, respectively. The plate was placed in an incubator at 37° C. with 5% CO2 to continue culturing, and three time points were set, which were 24 h, 48 h and 72 h, respectively.
(2) After reaching the designated time point, the cell culture plate was taken out from the incubator, and placed in a biological safety cabinet. A 4 ml centrifuge tube was taken and marked. The supernatant in each well was pipetted out and added to the corresponding 4 ml centrifuge tube. The cells were gently washed with PBS, and the PBS was added to the corresponding centrifuge tube. An appropriate amount of trypsin was added to each well to digest the cells. When the cells were digested to a moderate degree, the old culture medium from the centrifuge tube was added to the corresponding well. The cells were gently pipetted with apipette to form a single-cell suspension, which was pipetted back into the original centrifuge tube. The tube was immediately centrifuged at 1500 rpm for 5 minutes. Then, the supernatant was discarded and the precipitate was retained.
(3) 2 ml of pre-chilled PBS was added to the centrifuge tube, and centrifuged again at 1500 rpm for 5 minutes. The supernatant was discarded, and the cell debris was removed.
(4) 1 ml of 75% ethanol was added while pipetting the cells, to make the cells appear as single as possible. Then, the cells were fixed at 4° C. overnight or stored at −20° C. for long-term storage (can be stored for 1 week).
(5) The fixed cells were taken out, and centrifuged at 1000 rpm for 5 minutes. The ethanol was discarded, and pre-chilled PBS was added to wash the cells. Then, the cells were centrifuged at 1000 rpm for 5 min to remove the residual ethanol on the cells.
(6) A cell cycle detection kit from Wuhan Promoter Biology Co., Ltd. was used. 100 μl of RNaseA was added, and incubated in a 37° C. water bath for 30 minutes.
(7) 400 μl of PI was added and mixed well, and incubated at 4° C. in dark for 30 minutes.
(8) The cell cycle was detected by upflow cytometry.

N.N.[Cl][Pt][Cl] [DDP, cisplatin]
Mean animal body weight ± SE ([1]; D 12 (grouping)): 17.6 ± 0.3 g
Mean animal body weight ± SE ([1]; D 15): 17.2 ± 0.2 g
body weight loss rate ([1]; D 15): (2.6%)
Mean animal body weight ± SE ([1]; D 19): 16.9 ± 0.3 g
body weight loss rate ([1]; D 19): (3.9%)
Mean animal body weight ± SE ([1]; D 22): 16.3 ± 0.3 g
body weight loss rate ([1]; D 22): (7.4%)
Mean animal body weight ± SE ([1]; D 26): 15.8 ± 0.4 g
body weight loss rate ([1]; D 26): (10%)
Mean animal body weight ± SE ([1]; D 29): 15.3 ± 0.3 g
body weight loss rate ([1]; D 29): (13%)
Mean animal body weight ± SE ([1]; D 33): 14.8 ± 0.4 g
body weight loss rate ([1]; D 33): (16%)
Mean animal body weight ± SE ([1]; D 36): 14.8 ± 0.4 g
body weight loss rate ([1]; D 36): (16%)
Mean animal body weight ± SE ([1]; D 40): 14.9 ± 0.4 g
body weight loss rate ([1]; D 40): (15%)

COC1=C(OC)C(=O)C(CCCCCCCCCCOC(=O)Cc2c(C)n(C(=O)c3ccc(Cl)cc3)c3ccc(OC)cc23)=C(C)C1=O [compound of formula (I)]
colony-forming ability (NCI-H460 cells): decreased significantly
proportion of S phase of cells (A549 cells; 10 μM, 24 h): 22.94%
proportion of S phase of cells (A549 cells; 10 μM, 48 h): 24.73%
proportion of S phase of cells (A549 cells; 10 μM, 72 h): 19.77%
proportion of S phase of cells (A549 cells; 30 μM, 24 h): 12.52%
proportion of S phase of cells (A549 cells; 30 μM, 48 h): 15.96%
proportion of S phase of cells (A549 cells; 30 μM, 72 h): 10.63%
proportion of S phase of cells (A549 cells; 90 μM, 24 h): 3.92%
proportion of S phase of cells (A549 cells; 90 μM, 48 h): 4.37%
proportion of S phase of cells (A549 cells; 90 μM, 72 h): 5.42%
